# Data reported in publication PMC10673369, “Preliminary SAR of Novel Pleuromutilin–Polyamine Conjugates” (Microorganisms, 2023).
# Legend:
# S. aureus ATCC 25923 = assay: ATP efflux assay, S. aureus; assay type: cell-based, Staphylococcus aureus; details: compound at 100 µg/mL
# Experimental: (§1) ATP efflux assays were conducted using reported protocols (see Supplementary File).
# (§2) The mechanism of antibiotic action of 9e towards the Gram-positive bacterium Staphylococcus aureus was attributed to its ability to disrupt the bacterial membrane and cause the release of intracellular ATP. The test organisms, being S. aureus ATCC 25923 and MRSA, were briefly exposed to 9e at a single dose of 100 µg/mL, with the leakage of ATP determined by the use of a bioluminescence assay (Figure 4). […] Nevertheless, a 40% level of ATP release is detrimental to the survival of the bacteria. After 3 min, it will be clear that the bacteria will be killed.
# (§3) 2.9 ATP efflux measurement
# (§4) A solution of the compound was prepared in twice-distilled water at a fixed concentration of 100 µg/mL. The different Gram-positive suspensions were prepared in MH II broth and were incubated at 37 °C. […] Subsequently, 50 µL of Luceferin–Luceferase reagent (Yelen, France) was added to the mixture, and the luminescent signal was quantified with an Infinite M200 microplate reader (Tecan, Männedorf, Switzerland) for five seconds. ATP concentration was quantified by internal sample addition. Squalamine (100 µg/mL) was used as a positive control to quantify the maximum level of ATP efflux and water as the negative control. […]
# MRSA = assay: ATP efflux assay, MRSA; assay type: cell-based, methicillin-resistant S. aureus; details: compound at 100 µg/mL
# Experimental: as §1, §2, §3, §4
compound,measurement,setting,value
"C=C[C@]1(C)C[C@@H](OC(=O)CNCCCNCCCCCCCCCCNCCCNCC(=O)O[C@@H]2C[C@@](C)(C=C)[C@@H](O)[C@H](C)[C@]34CCC(=O)[C@H]3[C@@]2(C)[C@H](C)CC4)[C@]2(C)[C@H](C)CC[C@]3(CCC(=O)[C@H]32)[C@@H](C)[C@@H]1O.O=C(O)C(F)(F)F.O=C(O)C(F)(F)F.O=C(O)C(F)(F)F.O=C(O)C(F)(F)F [Compound 9e, N^1,N^1′-(Decane-1,10-diyl)bis(N^3-(2-(((3aR,4R,5R,7S,8S,9R,9aS,12R)-8-hydroxy-4,7,9,12-tetramethyl-3-oxo-7-vinyldecahydro-4,9a-propanocyclopenta [8]annulen-5-yl)oxy)-2-oxoethyl)propane-1,3-diaminium) 2,2,2-trifluoroacetate]",ATP release relative to positive control squalamine,S. aureus ATCC 25923,40%
same,ATP release relative to positive control squalamine,MRSA,40%
